Several values for one entry are separate records, joined by “and”; a condition that tells them apart may be missing. Equal entries are not always repeated. Where two headings read alike, the source gives them in different places.
How the values were obtained:
[1] = system: MCF-7 breast cancer cells; assay: MTT metabolism assay; assay type: cell-based, human; details: Homo sapiens
Experimental: (§1) Cells were plated in 96-well plates in 100 μl medium and allowed to attach overnight. […] Media was aspirated after 24 or 72 hours and replaced with 100 μl complete media containing 1 mg/ml MTT and incubated for three hours at 37° C. in 5% CO2 humidified incubator. Media was then aspirated and DMSO was added. Cells were incubated for 10 min at room temperature while shaking, and the absorbance was determined at 540 nm using a μQuant spectrophotometric plate reader (Bio-TEK, Winooski, Vt.).
Cells were plated in 96-well plates in 100 μl medium and allowed to attach overnight. Cells were then incubated for 72 h with varying concentrations of PI-083, YG1-080, YG1-075, HL2-090-2, HL2-090-4, HL2-090-6, and HL2-090-9 or vehicle control (DMSO). Media was aspirated and replaced with 100 μl complete media containing 1 mg/ml MTT and incubated for three hours at 37° C. in 5% CO2 humidified incubator. Media was then aspirated and DMSO was added. Cells were incubated for 10 min at room temperature while shaking, and the absorbance was determined at 540 nm using a μQuant spectrophotometric plate reader (Bio-TEK, Winooski, Vt.).

A549 lung cancer cells = assay: MTT metabolism assay; assay type: cell-based; details: Homo sapiens, mean ± SD of 3 to 5 experiments, read-out: IC50 for cell viability measured by MTT assay
Experimental: as §1

CaLu-1 lung cancer cells = assay: MTT metabolism assay; assay type: cell-based; details: Homo sapiens, mean ± SD of 3 to 5 experiments, read-out: IC50 for cell viability measured by MTT assay
Experimental: as §1

[2] = system: DU-145 prostate cancer cells; assay: MTT metabolism assay; assay type: cell-based; details: Homo sapiens, read-out: IC50 for cell viability measured by MTT assay
Experimental: as §1

[3] = system: HPDE6-C7 (C7) pancreatic epithelial cells; assay: MTT metabolism assay; assay type: cell-based; details: Homo sapiens, HPDE6c7, mean ± SD of 3 to 5 experiments, read-out: IC50 for cell viability measured by MTT assay
Experimental: as §1

[4] = system: HPDE6-C7-Kras (C7-Kras) pancreatic cancer cells; assay: MTT metabolism assay; assay type: cell-based; details: Homo sapiens, Pancreatic cancer cell, mean ± SD of 3 to 5 experiments, read-out: IC50 for cell viability measured by MTT assay
Experimental: as §1

[5] = system: LNCaP prostate cancer cells; assay: MTT metabolism assay; assay type: cell-based; details: Homo sapiens, mean ± SD of 3 to 5 experiments, read-out: IC50 for cell viability measured by MTT assay
Experimental: as §1

[6] = system: MCF-10A breast epithelial cells; assay: MTT metabolism assay; assay type: cell-based; details: Homo sapiens, mean ± SD of 3 to 5 experiments, read-out: IC50 for cell viability measured by MTT assay
Experimental: as §1

[7] = system: RPMI-8226 multiple myeloma cells; assay: MTT metabolism assay; assay type: cell-based; details: Homo sapiens, mean ± SD of 3 to 5 experiments, read-out: IC50 for cell viability measured by MTT assay
Experimental: as §1

[8] = system: T80 ovarian epithelial cells; assay: MTT metabolism assay; assay type: cell-based; details: Homo sapiens, Epithelial cell, mean ± SD of 3 to 5 experiments, read-out: IC50 for cell viability measured by MTT assay
Experimental: as §1

[9] = system: U266 multiple myeloma cells; assay: MTT metabolism assay; assay type: cell-based; details: Homo sapiens, U-266, mean ± SD of 3 to 5 experiments, read-out: IC50 for cell viability measured by MTT assay
Experimental: as §1

[10] = system: T80-Hras ovarian cancer cells; assay: MTT metabolism assay; assay type: cell-based; details: Homo sapiens, mean ± SD of 3 to 5 experiments, read-out: IC50 for cell viability measured by MTT assay
[11] = system: primary multiple myeloma cells isolated from patients' bone marrow; assay: Proliferation of primary multiple myeloma cells (Trypan blue); assay type: cell-based, human; details: primary MM cells, 24 h treatment, Table 5: one value per patient, mean over patients
Experimental: MM patients' bone marrow samples were collected from Liquid Tissue Bank facility. Freshly isolated bone marrow samples were fractionated by Ficoll-Paque (Pharmacia Biotech, Piscataway, N.J.) sedimentation. The mononuclear cellular layer was then resuspended in RPMI-1640 containing 10% heat-inactivated fetal bovine serum, 10 mM HEPES (pH 7.4), sodium pyruvate, L-glutamine, and 1% penicillin-streptomycin.
Adherent cells were harvested using trypsinization and pooled with suspension cells from media supernatant by pelleting at 300 g for 5 min at 4° C. The cells were then resuspended in an appropriate volume of media by pipetting gently up and down. Two 20 μl aliquots were removed and combined with an equal volume of 0.4% Trypan blue and allowed to mix for 1 minute. A 10 μl volume was loaded onto a hemacytometer and cells were scored as live or dead based on Trypan blue dye exclusion and the percentage of dead cell number to total cell number was calculated. To calculate the percentage of proliferation, the number of live cells in the treated samples was divided by the number of live cells in the untreated vehicle control.

[12] = system: MCF-7 breast cancer xenografts; assay: Antitumor study of human tumor xenografts in nude mice (MCF-7); assay type: in vivo; details: 1 mpk i.p. 2× weekly; for average tumor size of MCF-7 derived xenografts: start at about 200 mm^3
Experimental: (§2) Nude mice (Charles River Laboratories, Wilmington, Mass.) were maintained and treated in accordance with the Institutional Animal Care and Use Committee procedures and guidelines. Seven days before inoculation with MCF-7 cells, the animals were fully anesthetized for subcutaneous implantation of estradiol pellets (0.25 mg per pellet, 60-day release; Innovative Research of America, Sarasota, Fla.) on the dorsal surface of mice. Exponentially growing MCF-7 and A549 cells were harvested via trypsinization, pelleted at 300 g for 5 minutes, resuspended in sterile PBS (Invitrogen) at 10^7 cells per 100 μl, and injected into each flank of mice. The tumor xenografts were monitored with an electronic caliper every other day for 16 days. Tumor volume was calculated using the formula V=W^2L, where width is the largest diameter and length is the smallest diameter. When the tumors reached ˜200 mm^3, the animals were randomized and treatment schedules were implemented. […] 2 hours after the last injections animals were sacrificed via CO2 inhalation, and then tumors and livers were harvested and snap frozen in liquid N2.

[13] = system: A549 lung cancer xenografts; assay: Antitumor study of human tumor xenografts in nude mice (A549); assay type: in vivo; details: 1 mpk i.p. 2× weekly; for average tumor size of A549-derived xenografts: start at about 200 mm^3
Experimental: as §2

[14] = target: T1, tumor T-L activity (A549 tumors) (Homo sapiens, UniProt Q99436); assay: Proteasome activity in A549 tumor lysates after in vivo treatment; design: species or system nude mice; details: mouse, ip; A549 tumors extracted 2 hours after last i.p. injection (1 mpk), vs DMSO-treated controls
T1 construct: from tissue; host or cells: A549 human lung tumour xenografts grown in nude mice
Experimental: To determine proteasome activity in whole cell extracts from cultured cells (5 μg) or tumor and liver tissue extracts (30 μg) from nude mice, the same assay was used except that the buffer was changed to 20 mM HEPES, 0.5 mM EDTA, pH 8.0.
Whole cell extracts were prepared as follows: Cells were harvested, washed with PBS twice, and homogenized in a lysis buffer (50 mM Tris-HCl, pH 8.0, 5 mM EDTA, 150 mM NaCl, 0.5% NP-40) for 30 min at 4° C. Cell extracts from tumors and livers of nude mice were prepared in 50 mM HEPES, 0.5 mM EDTA, pH 8.0. Cell lysates were centrifuged at 12,000 g for 15 min, and the supernatants were collected as whole cell extracts.
Nude mice (Charles River Laboratories, Wilmington, Mass.) were maintained and treated in accordance with the Institutional Animal Care and Use Committee procedures and guidelines. […] Exponentially growing MCF-7 and A549 cells were harvested via trypsinization, pelleted at 300 g for 5 minutes, resuspended in sterile PBS (Invitrogen) at 10^7 cells per 100 μl, and injected into each flank of mice. The tumor xenografts were monitored with an electronic caliper every other day for 16 days. Tumor volume was calculated using the formula V=W^2L, where width is the largest diameter and length is the smallest diameter. When the tumors reached ˜200 mm^3, the animals were randomized and treatment schedules were implemented. […]

[15] = MCF7, 24 h, MCF-7, 24 h, mean ± SD of 3 to 5 experiments, read-out: IC50 for cell viability measured by MTT assay
[16] = MCF7, 72 h, MCF-7, 72 h, mean ± SD of 3 to 5 experiments (Table 3), read-out: IC50 for cell viability measured by MTT assay
[17] = read-out: Proliferation 24 h (IC50 values)

## CC(C)C[C@H](NC(=O)[C@H](Cc1ccccc1)NC(=O)c1cnccn1)B(O)O [Bortezomib, reference compound]
[1]; [15]
  IC50: > 30 µM
[1]; [16]
  IC50: 8.6 ± 1.41 µM
A549 lung cancer cells; A549, 24 h
  IC50: > 30 µM
A549 lung cancer cells; A549, 72 h
  IC50: 0.41 ± 0.07 µM
CaLu-1 lung cancer cells; CaLu-1, 24 h
  IC50: > 30 µM
CaLu-1 lung cancer cells; CaLu-1, 72 h
  IC50: 0.022 ± 0.002 µM
[2]; DU-145, 24 h
  IC50: > 30 µM
[2]; DU-145, 72 h
  IC50: 0.025 ± 0.002 µM
[3]; C7, 24 h
  IC50: > 30 µM
[3]; C7, 72 h
  IC50: 0.032 ± 0.001 µM
[4]; 24 h
  IC50: > 30 µM
[4]; 72 h
  IC50: 0.028 ± 0.006 µM
[5]; 24 h
  IC50: > 30 µM
[5]; 72 h
  IC50: 0.057 ± 0.004 µM
[6]; 24 h
  IC50: > 30 µM
[6]; 72 h
  IC50: 0.15 ± 0.074 µM
[7]; RPMI-8226, 24 h
  IC50: 0.049 ± 0.025 µM
[7]; RPMI-8226, 72 h
  IC50: 0.026 ± 0.003 µM
[8]; T80, 24 h
  IC50: > 30 µM
[8]; T80, 72 h
  IC50: 0.014 ± 0.001 µM
[9]; U266, 24 h
  IC50: > 30 µM
[10]; 24 h
  IC50: > 30 µM
[11]; Homo sapiens, Multiple myeloma cell, read-out: Proliferation 24 h (IC50 values, μM)
  IC50: > 10 µM
[11]; [17]
  IC50: > 10 µM
[12]
  antitumor effect in MCF-7 xenografts, in words: appeared to be ineffective in the nude mouse model
  average tumor size of MCF-7 derived xenografts: 1,448±145 mm^3
[13]
  average tumor size of A549-derived xenografts: 864±207 mm^3
[14]
  inhibition at 1 mg/kg: 0%

## O=C1C(Cl)=C(Nc2ccc(S(=O)(=O)Nc3ccccn3)cc2)C(=O)c2ccccc21 [PI-083, 4-(3-chloro-1,4-dioxo-1,4-dihydronaphthalen-2-ylamino)-N-(pyridin-2-yl)benzenesulfonamide]
[1]; [15]
  IC50: 4.5 ± 0.82 µM
[1]; MCF7, 72 h, MCF-7, 72 h (Table 6), read-out: IC50 for cell viability measured by MTT assay in MCF-7 human breast cancer cells
  IC50: 2.31 ± 0.1 µM
[1]; [16]
  IC50: 2.2 ± 1.1 µM
A549 lung cancer cells; A549, 24 h
  IC50: 41 ± 17 µM
A549 lung cancer cells; A549, 72 h
  IC50: 11 ± 6.7 µM
CaLu-1 lung cancer cells; CaLu-1, 24 h
  IC50: 7.3 ± 0.43 µM
CaLu-1 lung cancer cells; CaLu-1, 72 h
  IC50: 4.9 ± 1.2 µM
[2]; DU-145, 24 h
  IC50: 8.6 ± 0.63 µM
[2]; DU-145, 72 h
  IC50: 5 ± 0.72 µM
[3]; C7, 24 h
  IC50: 5.1 ± 0.53 µM
[3]; C7, 72 h
  IC50: 4.2 ± 1.6 µM
[4]; 24 h
  IC50: 2.4 ± 0.23 µM
[4]; 72 h
  IC50: 1.9 ± 0.2 µM
[5]; 24 h
  IC50: 14 ± 2.8 µM
[5]; 72 h
  IC50: 5.2 ± 1.1 µM
[6]; 24 h
  IC50: 17 ± 0.86 µM
[6]; 72 h
  IC50: 4.2 ± 2.1 µM
[7]; RPMI-8226, 24 h
  IC50: 7.4 ± 0.38 µM
[7]; RPMI-8226, 72 h
  IC50: 10 ± 4 µM
[8]; T80, 24 h
  IC50: 2.7 ± 0.53 µM
[8]; T80, 72 h
  IC50: 1.7 ± 0.39 µM
[9]; U266, 24 h
  IC50: 23 ± 1.7 µM
[9]; U266, 72 h
  IC50: 7 ± 1.5 µM
[10]; 24 h
  IC50: 1.5 ± 0.57 µM
[10]; 72 h
  IC50: 2.1 ± 0.4 µM
[11]; [17]
  IC50: 6.6 µM and 1.3 µM and 2.2 µM and 2.6 µM and 1.7 µM and 2.8 µM and 10 µM and 5 µM and 2.9 µM
[12]
  tumor growth inhibition, MCF-7 xenografts: 84%
  average tumor size of MCF-7 derived xenografts: about 396±137 mm^3
[13]
  tumor growth inhibition, A549 xenografts: 54%
  average tumor size of A549-derived xenografts: about 511±134 mm^3
[14]
  inhibition at 1 mg/kg: 12%
